Paper PMC11995724, “Antibiotic target discovery by integrated phenotypic and activity-based profiling of electrophilic fragments” (Cell chemical biology, 2025)
Counter-ions that a name gives are not always drawn.

test: in vitro; conditions: human, hek293t cells

Question: With `C=CC(=O)N1CCC(C(=O)N(C)C(C)c2sc(CC)nc2C)CC1` (centres unmarked) [2-P04, N-[1-(2-ethyl-4-methyl-1,3-thiazol-5-yl)ethyl]-N-methyl-1-(prop-2-enoyl)piperidine-4-carboxamide] as the compound, how does the viability at 48 h, 25 µM read?
Answer: 95.1%

Question: Which viability at 48 h, 25 µM does the source give for `C=CC(=O)NC1(C(N)=O)CCCC1C` (centres unmarked) [3-B09, 2-methyl-1-(prop-2-enamido)cyclopentane-1-carboxamide] here?
Answer: 54.5%

Question: With `C=CC(=O)NCCC1CCCS1(=O)=O` (centres unmarked) [3-C12, N-[2-(1,1-dioxo-1lambda6-thiolan-2-yl)ethyl]prop-2-enamide] as the compound, how does the viability at 48 h, 25 µM read?
Answer: 86.1%

Question: Which viability at 48 h, 25 µM does the source give for `Cc1ccc(C2CC(c3cccs3)=NN2C(=O)CCl)cc1` (centres unmarked) [4-I22, 2-chloro-1-[5-(4-methylphenyl)-3-(thiophen-2-yl)-4,5-dihydro-1H-pyrazol-1-yl]ethan-1-one] here?
Answer: 0.369%

Question: For `CC(Cl)C(=O)NCc1nc2cccnc2n1C` (centres unmarked) [7-O17, 2-chloro-N-({3-methyl-3H-imidazo[4,5-b]pyridin-2-yl}methyl)propanamide], which viability at 48 h, 25 µM is on record?
Answer: 103%

Question: For `C=CC(=O)NC1CCC(F)(F)CC1F` (centres unmarked) [1-E11, N-(2,4,4-trifluorocyclohexyl)prop-2-enamide], which viability at 48 h, 25 µM is on record?
Answer: 69.4%

Question: With `CCN(CC)C(=O)c1cccc(NC(=O)CCl)c1` [5-I03, 3-(2-chloroacetamido)-N,N-diethylbenzamide] as the compound, how does the viability at 48 h, 25 µM read?
Answer: 0.175%

Question: For `Cc1ccc(C=C(C#N)C(=O)NC2CC2)s1` [9-K15, 2-cyano-N-cyclopropyl-3-(5-methylthiophen-2-yl)prop-2-enamide], which viability at 48 h, 25 µM is on record?
Answer: 126%

Question: With `Cc1cc(C(=O)C(C)Cl)c(C)n1-c1ccccc1` (centres unmarked) [10-A06, 2-chloro-1-(2,5-dimethyl-1-phenyl-1H-pyrrol-3-yl)propan-1-one] as the compound, how does the viability at 48 h, 25 µM read?
Answer: 99.9%

Question: Which viability at 48 h, 25 µM does the source give for `CC(Cl)C(=O)NCC1=CCCOC1` (centres unmarked) [7-I05, 2-chloro-N-[(5,6-dihydro-2H-pyran-3-yl)methyl]propanamide] here?
Answer: 89.9%

Question: With `C=CC(=O)N1CC(C)(C)c2cc(Cl)ccc21` [1-L14, 1-(5-chloro-3,3-dimethyl-2,3-dihydro-1H-indol-1-yl)prop-2-en-1-one] as the compound, how does the viability at 48 h, 25 µM read?
Answer: 1.22%

Question: With `CC(Cl)C(=O)N1Cc2ccccc2N(C)C[C@@H]1C` (stereo partly drawn) [5-F15, 2-chloro-1-[(3S)-1,3-dimethyl-2,3,4,5-tetrahydro-1H-1,4-benzodiazepin-4-yl]propan-1-one] as the compound, how does the viability at 48 h, 25 µM read?
Answer: 108%

Question: Which viability at 48 h, 25 µM does the source give for `CN1C(=O)[C@H](NC(=O)CCl)COc2ccccc21` [7-D04, 2-chloro-N-[(3R)-5-methyl-4-oxo-2,3,4,5-tetrahydro-1,5-benzoxazepin-3-yl]acetamide] here?
Answer: 2.02%

Question: Which viability at 48 h, 25 µM does the source give for `COCC(C)NC(=O)C(C#N)=Cc1ccc(F)c(C)c1` (centres unmarked) [9-H09, 2-cyano-3-(4-fluoro-3-methylphenyl)-N-(1-methoxypropan-2-yl)prop-2-enamide] here?
Answer: 108%

Question: Which viability at 48 h, 25 µM does the source give for `CC(Cl)C(=O)NCCc1nnc2n1CCCCC2` (centres unmarked) [7-D09, 2-chloro-N-(2-{5H,6H,7H,8H,9H-[1,2,4]triazolo[4,3-a]azepin-3-yl}ethyl)propanamide] here?
Answer: 101%

Question: Which viability at 48 h, 25 µM does the source give for `N#CC(=Cc1ccco1)C(=O)Nc1cccc(Cn2cccn2)c1` [8-I20, 2-cyano-3-(furan-2-yl)-N-{3-[(1H-pyrazol-1-yl)methyl]phenyl}prop-2-enamide] here?
Answer: 82.1%

Question: For `CC(Cl)C(=O)Nc1cc(F)ccc1F` (centres unmarked) [6-A09, 2-chloro-N-(2,5-difluorophenyl)propanamide], which viability at 48 h, 25 µM is on record?
Answer: 96%

Question: Which viability at 48 h, 25 µM does the source give for `C=CC(=O)NCC(CC)n1nc(C)cc1C` (centres unmarked) [1-K21, N-[2-(3,5-dimethyl-1H-pyrazol-1-yl)butyl]prop-2-enamide] here?
Answer: 108%

Question: For `C=CC(=O)Nc1ccc(C(=O)N2C[C@H](O)C[C@H]2C(=O)OC)cc1` [2-O21, methyl (2S,4R)-4-hydroxy-1-[4-(prop-2-enamido)benzoyl]pyrrolidine-2-carboxylate], which viability at 48 h, 25 µM is on record?
Answer: 145%

Question: With `N#CC(=CC1=Cc2ccccc2OC1)C(=O)Nc1ccc(C(=O)O)cc1` [8-N08, 4-[3-(2H-chromen-3-yl)-2-cyanoprop-2-enamido]benzoic acid] as the compound, how does the viability at 48 h, 25 µM read?
Answer: 97.6%

Question: Which viability at 48 h, 25 µM does the source give for `O=C(CCl)Nc1ncc[nH]1` [6-B03, 2-chloro-N-(1H-imidazol-2-yl)acetamide hydrochloride] here?
Answer: 37.4%

Question: For `C=CC(=O)N1CCCC(CS(=O)(=O)NC)C1` (centres unmarked) [2-E18, N-methyl-1-[1-(prop-2-enoyl)piperidin-3-yl]methanesulfonamide], which viability at 48 h, 25 µM is on record?
Answer: 95%

Question: Which viability at 48 h, 25 µM does the source give for `N#CC(=Cc1cccs1)C(=O)Nc1nccs1` [8-G13, 2-cyano-N-(1,3-thiazol-2-yl)-3-(thiophen-2-yl)prop-2-enamide] here?
Answer: 110%

Question: For `CC(Cl)C(=O)Nc1ccc([N+](=O)[O-])cc1Cl` (centres unmarked) [4-J17, 2-chloro-N-(2-chloro-4-nitrophenyl)propanamide], which viability at 48 h, 25 µM is on record?
Answer: 85.5%

Question: Which viability at 48 h, 25 µM does the source give for `CCC(NC(=O)CCl)c1c(C)noc1C` (centres unmarked) [7-D03, 2-chloro-N-[1-(3,5-dimethyl-1,2-oxazol-4-yl)propyl]acetamide] here?
Answer: 104%

Question: Which viability at 48 h, 25 µM does the source give for `C=CC(=O)N(C)Cc1noc(C2CC2)n1` [2-N17, N-[(5-cyclopropyl-1,2,4-oxadiazol-3-yl)methyl]-N-methylprop-2-enamide] here?
Answer: 60.3%

Question: For `C=CC(=O)Nc1ccnc(OC)c1` [2-F21, N-(2-methoxypyridin-4-yl)prop-2-enamide], which viability at 48 h, 25 µM is on record?
Answer: 1.66%

Question: For `CC(CNC(=O)C(C)Cl)Oc1cccc(Cl)c1` (centres unmarked) [6-F13, 2-chloro-N-[2-(3-chlorophenoxy)propyl]propanamide], which viability at 48 h, 25 µM is on record?
Answer: 103%

Question: With `C=CC(=O)N1CSCC1C(=O)N(C)C` (centres unmarked) [1-G03, N,N-dimethyl-3-(prop-2-enoyl)-1,3-thiazolidine-4-carboxamide] as the compound, how does the viability at 48 h, 25 µM read?
Answer: 75.4%

Question: For `O=C(CCl)N1CCC(Cc2nc(-c3ccc(F)cn3)no2)CC1` [5-K18, 2-chloro-1-(4-{[3-(5-fluoropyridin-2-yl)-1,2,4-oxadiazol-5-yl]methyl}piperidin-1-yl)ethan-1-one], which viability at 48 h, 25 µM is on record?
Answer: 1.83%

Question: Which viability at 48 h, 25 µM does the source give for `C/C(O)=C(\C#N)C(=O)Nc1ccc(-c2ccccc2Cl)cc1` [9-P22, (2Z)-N-{2'-chloro-[1,1'-biphenyl]-4-yl}-2-cyano-3-hydroxybut-2-enamide] here?
Answer: 107%

Question: Which viability at 48 h, 25 µM does the source give for `Cn1ncc(C(=O)CCl)n1` [10-J10, 2-chloro-1-(2-methyl-2H-1,2,3-triazol-4-yl)ethan-1-one] here?
Answer: 85.5%

Question: With `CC(Cl)C(=O)NCc1cccc(Cn2cnc3ccccc32)c1` (centres unmarked) [6-O16, N-({3-[(1H-1,3-benzodiazol-1-yl)methyl]phenyl}methyl)-2-chloropropanamide] as the compound, how does the viability at 48 h, 25 µM read?
Answer: 116%

Question: For `Cc1cc(C)c(-c2cc(NC(=O)CCl)n(-c3ccccc3)n2)cc1C` [6-A10, 2-chloro-N-[1-phenyl-3-(2,4,5-trimethylphenyl)-1H-pyrazol-5-yl]acetamide], which viability at 48 h, 25 µM is on record?
Answer: 0.264%

Question: With `CC1CC(C(=O)CCl)CO1` (centres unmarked) [10-M13, 2-chloro-1-(5-methyloxolan-3-yl)ethan-1-one] as the compound, how does the viability at 48 h, 25 µM read?
Answer: 102%

Question: With `C=CC(=O)N1CCC(C(=O)NC2(CO)CCSCC2)CC1` [3-H07, N-[4-(hydroxymethyl)thian-4-yl]-1-(prop-2-enoyl)piperidine-4-carboxamide] as the compound, how does the viability at 48 h, 25 µM read?
Answer: 67.5%

Question: For `O=C1C=CC(=O)N1C1CNC1` [10-O19, 1-(azetidin-3-yl)-2,5-dihydro-1H-pyrrole-2,5-dione hydrochloride], which viability at 48 h, 25 µM is on record?
Answer: 83.3%

Question: With `C=CC(=O)N1CCN(c2nc3ccccc3o2)CC1` [1-K05, 1-[4-(1,3-benzoxazol-2-yl)piperazin-1-yl]prop-2-en-1-one] as the compound, how does the viability at 48 h, 25 µM read?
Answer: 75.6%

Question: With `Cc1c(NC(=O)CCl)c(=O)n(-c2ccccc2)n1C` [5-G17, 2-chloro-N-(1,5-dimethyl-3-oxo-2-phenyl-2,3-dihydro-1H-pyrazol-4-yl)acetamide] as the compound, how does the viability at 48 h, 25 µM read?
Answer: 42.7%

Question: With `C=CC(=O)Nc1ccc2c(c1)N(CC#N)CC2` [1-C19, N-[1-(cyanomethyl)-2,3-dihydro-1H-indol-6-yl]prop-2-enamide] as the compound, how does the viability at 48 h, 25 µM read?
Answer: 94.7%

Question: With `O=C(CCl)N1CCSc2c([nH]c3ccccc23)C1` [6-F08, 2-chloro-1-{2H,3H,4H,5H,6H-[1,4]thiazepino[6,7-b]indol-4-yl}ethan-1-one] as the compound, how does the viability at 48 h, 25 µM read?
Answer: 1.68%

Question: With `C=CC(=O)NCc1ccc(C(=O)N2CCC(c3nnc(C)o3)CC2)cc1` [2-M18, N-({4-[4-(5-methyl-1,3,4-oxadiazol-2-yl)piperidine-1-carbonyl]phenyl}methyl)prop-2-enamide] as the compound, how does the viability at 48 h, 25 µM read?
Answer: 87.6%

Question: For `COc1ccccc1NC(=O)C(C#N)=Cc1ccco1` [8-H08, 2-cyano-3-(furan-2-yl)-N-(2-methoxyphenyl)prop-2-enamide], which viability at 48 h, 25 µM is on record?
Answer: 93%

Question: With `CC(Cl)C(=O)N1CCOCC1c1cccn1C` (centres unmarked) [7-A09, 2-chloro-1-[3-(1-methyl-1H-pyrrol-2-yl)morpholin-4-yl]propan-1-one] as the compound, how does the viability at 48 h, 25 µM read?
Answer: 82%

Question: With `C=CCNC(=O)C(C#N)=Cc1cc(F)ccc1F` [9-H07, 2-cyano-3-(2,5-difluorophenyl)-N-(prop-2-en-1-yl)prop-2-enamide] as the compound, how does the viability at 48 h, 25 µM read?
Answer: 111%

Question: Which viability at 48 h, 25 µM does the source give for `O=C(CCl)N(Cc1ccsc1)C1CC1` [5-N18, 2-chloro-N-cyclopropyl-N-[(thiophen-3-yl)methyl]acetamide] here?
Answer: 1.23%

Question: With `Cc1csc(COC2CCN(C(=O)CCl)C2)n1` (centres unmarked) [5-M08, 2-chloro-1-{3-[(4-methyl-1,3-thiazol-2-yl)methoxy]pyrrolidin-1-yl}ethan-1-one] as the compound, how does the viability at 48 h, 25 µM read?
Answer: 1.8%

Question: With `CC(Cl)C(=O)N1CCc2ccccc21` (centres unmarked) [5-H04, 2-chloro-1-(2,3-dihydro-1H-indol-1-yl)propan-1-one] as the compound, how does the viability at 48 h, 25 µM read?
Answer: 114%

Question: Which viability at 48 h, 25 µM does the source give for `Cc1ccccc1NC(=O)C(C#N)=Cc1ccc2c(c1)OCCO2` [8-J03, 2-cyano-3-(2,3-dihydro-1,4-benzodioxin-6-yl)-N-(2-methylphenyl)prop-2-enamide] here?
Answer: 93.5%

Question: For `O=C(CCl)N1CCOc2c1cccc2C(F)(F)F` [5-G08, 2-chloro-1-[8-(trifluoromethyl)-3,4-dihydro-2H-1,4-benzoxazin-4-yl]ethan-1-one], which viability at 48 h, 25 µM is on record?
Answer: 0.974%

Question: For `CC(Cl)C(=O)N1C2CCC1CC(N(C)C(=O)c1ccccc1)C2` (centres unmarked) [6-L14, N-[8-(2-chloropropanoyl)-8-azabicyclo[3.2.1]octan-3-yl]-N-methylbenzamide], which viability at 48 h, 25 µM is on record?
Answer: 101%

Question: Which viability at 48 h, 25 µM does the source give for `CC(C)(C)C(=O)NCc1ccc(C(=O)CCl)s1` [10-P10, N-{[5-(2-chloroacetyl)thiophen-2-yl]methyl}-2,2-dimethylpropanamide] here?
Answer: 12.3%

Question: With `C=CC(=O)N1CCCN(S(N)(=O)=O)CC1` [3-K10, 4-(prop-2-enoyl)-1,4-diazepane-1-sulfonamide] as the compound, how does the viability at 48 h, 25 µM read?
Answer: 98.5%
